These results are taken from US11197863B2, “Inhibitors of polo-like kinase 4 (PLK4) for treating pediatric embryonal tumors” (ANN AND ROBERT H. LURIE CHILDREN'S HOSPITAL OF CHICAGO, priority 2017, dated 2021).

For series [1], the system named is HFF-SCC058 human fibroblasts. The series can be described thus: Invasion and migration assays (Transwell). It is filed as cell-based. As to conditions: 100 nM, 24 hr. As for the experimental part:
(§1) Both migration and invasion were assessed using a 24-well Transwell chamber system (Corning, USA).[35] MON cells were plated at 20,000 per well for cell migration and at 50,000 per well coated with matrigel (200 μg/ml, 3 hr of solidification) for cell invasion. HFF-SCC058 cells were used as negative controls. […] All experiments were performed in triplicates.

For series [2], the target named is TEK (Homo sapiens, UniProt Q02763). The experiment in a line: Kinase activity screening (SelectScreen Kinase Profiling). The class given is biochemical. The note with it: 10-point titration.
Description: These assays utilized various formats appropriate to the kinase, its substrate and its activity. Formats included the Z-LYTE™ Kinase Assay that determines the differential sensitivity of phosphorylated and non-phosphorylated peptide substrates to proteolytic cleavage using a FRET-based readout, the Adapta™ Universal Kinase Assay that employs a homogeneous, fluorescence-based immunoassay for the detection of ADP produced by kinases and the LanthaScreen™ Eu Kinase Binding Assay that utilizes an Alexa Fluor™ conjugated “tracer” and an Eu-labeled anti-tag antibody to measure binding of a compound to the kinase target [62].
The subject of series [3] is MON, G401, BT-12, and BT-16 cells. The experiment in a line: MTT cell proliferation assay, rhabdoid tumor cell lines. It is filed as cell-based, human. As to conditions: all cell lines evaluated; 10-500 nM, 48 and 72 hr. The method, then: The expression of PLK4 (Hs00179514_m1) was verified by TaqMan GE assays (Thermo Fisher Scientific, USA) using the housekeeping gene GAPDH (Hs02758991_g1) as reference as previously described.[30] PLK4 inhibitor. […] Cell proliferation was evaluated by MTT assay and cell survival was evaluated by clonogenic assays using increasing concentrations of the drug in different time-points, as described below.
To evaluate cell proliferation, we used TACS MTT Cell Proliferation Assays (Trevigen, USA). We plated 2×10^3 cells on each well of a 96-well plate and the absorbance was measured after 48 and 72 hr at concentrations of 10, 50, 100, 200, and 500 nM. Each experiment was performed in triplicates.
On the technique in general: Tetrazolium assays rely on reduction of a dye to a coloured formazan, in cell work by metabolically active cells.

In series [4] the test system is zebrafish larvae. The experiment in a line: In vivo toxicity assay in zebrafish larvae. The method, then: Control larvae were exposed to 2% DMSO. Survival and delays in development and morphologic abnormalities were recorded at three time-points (24, 48, and 72 h of treatment). For each condition, groups of 20 larvae were analyzed in triplicates totalizing 420 subjects and 60 controls. Two-way ANOVA was used to analyze the results.

Series [5] has as its system AURKA or other PLK family members. The note with it: cited from earlier work.
For series [6], the target named is Aurora kinase B (Homo sapiens, UniProt Q96GD4). The note with it: cited from earlier work.
In series [7] the test system is HFF-SCC058 human fibroblasts. The series can be described thus: Cell cycle analysis by flow cytometry (polyploidy). The class given is cell-based. As for the experimental part: (§2) Cell cycle evaluation was performed by staining the cells with PI (Thermo Fisher Scientific, USA) according to manufacturer's instructions. […] Data was analyzed using Modfit LT from Verity Software House. Experiments were performed in triplicates.

For series [8], the system named is RT and MB cell lines. The experiment in a line: Clonogenic recovery assay. The class given is cell-based, human. As to conditions: 100 nM for 6 days, then 12 days drug-free. As for the experimental part:
For each cell line, 200 cells were seeded into 6-well tissue culture plates. […] On the 7th day, cell were washed with IX PBS twice and then incubated with 0.1% DMSO for an additional 12 days. […] The number of colonies was counted. All experiments were performed in triplicates.

In series [9] the test system is PLK4 mRNA in MON rhabdoid cells. The series can be described thus: qPCR for PLK4 expression. The note with it: 10, 50, 100 and 500 nM for 24, 48 and 72 hours vs 0.1% DMSO. The class given is cell-based, human. As for the experimental part:
The expression of PLK4 (Hs00179514_m1) in each cell line was verified by TaqMan GE assays (Thermo Fisher Scientific, USA) using the housekeeping gene GAPDH (Hs02758991_g1) as reference. Total RNA (2 μg) was used to make cDNA using the Applied Biosystems High Capacity RNA-to-cDNA kit (Thermo Fisher Scientific). Reactions were performed in triplicate with adequate positive and negative controls. The normalized expression levels were calculated by […] method using the housekeeping gene and a pool of all samples as calibrator.

Series [10] deals with G401, BT-12, BT-16, DAOY and D283 cell lines. The experiment in a line: Immunofluorescence for gamma-tubulin (centriole number). It is filed as cell-based, human. The method, then:
(§3) The cells were then blocked in blocking buffer (5% BSA (Jackson Immuno Research Laboratories Inc., USA) in PBST) for 1 hour at RT. The primary antibody ([…] 1:500, Sigma, USA) diluted in 1% BSA in PBST was then added and incubated at 4° C. overnight. Then, the cells were washed with 1×PBS thrice. Secondary antibody (Anti-Rabbit IgG (H+L) F (ab′) 2, 1:500, Sigma, USA) diluted in 1% BSA in PBST was added and incubated at RT for 2 hours. Three time washes with IX PBS were performed. Then, 1 mL of DAPI (Thermo Fisher Scientific, USA) in PBS (0.5 μl of DAPI in 10 ml PBS) was added to the cells and incubated for 10 min at RT. Finally, 3 time washes with 1×PBS were performed and slides were mounted using Mounting Medium (Thermo Fisher Scientific, USA).

Series [11] relates to MON rhabdoid cells. The description is as above. It is filed as cell-based, human. As to conditions: 48 hours. As for the experimental part:
as §3

In series [12] the test system is MON cells. The experiment in a line: Time-lapse assay, nuclear area and volume. As to conditions: 100 nM, 48 hours, p-value<0.001. It is filed as cell-based, human. As for the experimental part: Cells were plated in 35 mm glass bottom dishes (Cat #150682, Thermo Fisher Scientific, USA) in normal growth medium and allowed to grow overnight. After the treatment medium was added, imaging began immediately. Brightfield images (20×) were taken every 6 minutes at 10 predetermine fields for 48 hours. Images were processed in ZEN 2.3 software (Zeiss, USA).

The test system of series [13] is MON cells. The series can be described thus: Invasion and migration assays (Transwell). The class given is cell-based, human. The note with it: 100 nM, 24 hr. As for the experimental part:
as §1

The test system of series [14] is RT and MB cell lines. The series can be described thus: Cell cycle analysis by flow cytometry (polyploidy). It is filed as cell-based, human. The note with it: multiple RT and MB cell lines. As for the experimental part:
as §2
(A flow cytometer gives signals particle by particle.)

In series [15] the test system is MON, G401, BT-12, and BT-16 cells. The experiment in a line: Clonogenic assay, rhabdoid tumor cell lines. The class given is cell-based, human. As to conditions: 50-200 nM; analyzed 14 days after treatment. The method, then:
For each cell line, 200 cells were seeded into six-well plates, incubated for 14 days, fixed with formalin, stained with Cresyl violet (ACROS Organics, USA), and the number of colonies counted using Image J software (www.imagej.nih.gov).
To evaluate the effect of the PLK4 mutation over cell survival, MON-PLK4-mutated cells were compared with MON-Cas9. […] Controls were treated with 0.1% DMSO. All experiments were performed in triplicates.

In series [16] the test system is breast cancer cells. As to conditions: Sampson et al.; cited from earlier work.

The term IC50 denotes the concentration that gives 50% inhibition. A lower IC50 goes with greater potency.

Chain of TEK (Q02763 23-1124): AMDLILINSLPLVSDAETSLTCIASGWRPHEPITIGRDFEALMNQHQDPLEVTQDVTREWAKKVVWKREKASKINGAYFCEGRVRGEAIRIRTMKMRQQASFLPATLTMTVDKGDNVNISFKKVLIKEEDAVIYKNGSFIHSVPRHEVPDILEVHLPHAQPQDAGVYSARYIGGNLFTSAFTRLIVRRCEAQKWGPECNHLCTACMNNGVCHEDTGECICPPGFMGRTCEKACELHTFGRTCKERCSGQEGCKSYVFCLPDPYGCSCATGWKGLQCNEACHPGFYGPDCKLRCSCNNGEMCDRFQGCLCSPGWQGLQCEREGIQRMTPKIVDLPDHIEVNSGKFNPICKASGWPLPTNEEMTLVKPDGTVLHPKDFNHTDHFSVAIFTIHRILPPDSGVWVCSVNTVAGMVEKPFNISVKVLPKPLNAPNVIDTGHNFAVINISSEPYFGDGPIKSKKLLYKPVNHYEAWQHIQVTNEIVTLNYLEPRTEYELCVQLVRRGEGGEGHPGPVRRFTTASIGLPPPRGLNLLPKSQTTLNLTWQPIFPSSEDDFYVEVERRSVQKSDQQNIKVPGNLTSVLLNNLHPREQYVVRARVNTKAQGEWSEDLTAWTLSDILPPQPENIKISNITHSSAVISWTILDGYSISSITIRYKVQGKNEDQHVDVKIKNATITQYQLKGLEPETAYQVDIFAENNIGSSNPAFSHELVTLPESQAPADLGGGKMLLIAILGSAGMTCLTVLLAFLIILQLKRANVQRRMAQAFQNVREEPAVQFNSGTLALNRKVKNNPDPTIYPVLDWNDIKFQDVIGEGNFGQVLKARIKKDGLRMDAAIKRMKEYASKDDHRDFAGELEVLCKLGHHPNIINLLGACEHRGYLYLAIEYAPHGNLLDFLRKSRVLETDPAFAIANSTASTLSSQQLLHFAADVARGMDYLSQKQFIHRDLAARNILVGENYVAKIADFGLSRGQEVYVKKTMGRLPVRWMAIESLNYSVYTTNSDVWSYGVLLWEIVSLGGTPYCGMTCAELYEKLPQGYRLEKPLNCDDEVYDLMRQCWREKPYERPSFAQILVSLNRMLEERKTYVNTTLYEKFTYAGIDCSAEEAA
Chain of Aurora kinase B (Q96GD4 whole entry, species assumed): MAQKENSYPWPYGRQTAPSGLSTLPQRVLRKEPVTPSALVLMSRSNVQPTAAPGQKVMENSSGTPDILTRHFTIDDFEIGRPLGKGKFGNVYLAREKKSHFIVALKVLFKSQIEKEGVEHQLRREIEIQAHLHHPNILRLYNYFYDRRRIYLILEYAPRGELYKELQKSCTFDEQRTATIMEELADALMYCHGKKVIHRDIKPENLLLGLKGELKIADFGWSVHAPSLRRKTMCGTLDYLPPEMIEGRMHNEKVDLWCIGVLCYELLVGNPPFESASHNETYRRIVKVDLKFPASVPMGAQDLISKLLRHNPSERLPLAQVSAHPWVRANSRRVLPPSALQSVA

Take `COc1ccc2c(c1)[C@]1(C[C@H]1c1ccc3c(/C=C/c4ccc(CN5C[C@@H](C)O[C@@H](C)C5)cc4)n[nH]c3c1)C(=O)N2` [CFI-400945]: the values for the invasion and migration entry in series [1] and in series [13] were “no effects were observed” and “significant reduction”, respectively. For the same compound, it took 109 nM to reach half-maximal inhibition in series [2] (IC50). In addition, the “cell proliferation (MTT)” value in [3] is given as “significant reduction of cell proliferation”. Besides, the larvae deaths result in [4] (10 nM to 20 μM for 3 days, over 400 larvae) was “no increase in larvae deaths”. The morphologic abnormalities entry in series [4] (extremely high concentrations (10 and 20 μM)) is “edema and body curvature were consistently observed”. The “inhibition of AURKA or other PLK family members” value in series [5] is “no significant inhibition”. Also, in [6], the “activity against Aurora kinase B” value was “certain activity”. The polyploidy entry in series [7] was “not affecting”. Moreover, the “ability to generate colonies after drug removal” value in series [8] is “lost their ability to generate colonies”. Also, the “PLK4 expression (qPCR)” value in series [9] is reported as “time dependent decrease in PLK4 expression”. Further, the centriole number entry was “increase in centriole's number” in [10] (100 nM), “significant decrease” in series [10] (500 nM), “slight increase in centrioles' number” in [11] (100 nM) and “significant depletion of centrioles” in [11] (500 nM). In [12], the “nuclear area (FC)” value is on record as 2.79. Further, the “nuclear volume (FC)” value in series [12] was determined as 4.69. The degree of polyploidy in series [14] is greater than 8 N. Also, the “colonies (clonogenic assay)” value in series [15] was “complete absence of colonies”. Also, in series [16], the “effect on breast cancer cells” value is recorded as “cell death”.
